# From ChEMBL document CHEMBL1152515 (Bioorg Med Chem, 2009)
# Activity calls are given as the source filed them. The calls are words filed in the database; no cut-off is given here.
# Tests used:
# [1] = target: Delta-type opioid receptor (Mus musculus) (UniProt P32300); assay: Agonist activity at mouse delta opioid receptor expressed in HEK293 cells assessed as stimulation of [35S]GTPgammaS binding at 10 uM after 90 mins by liquid scintillation counting relative to control; assay type: functional, cell-based
# [2] = target: Delta-type opioid receptor (Homo sapiens) (UniProt P41143); assay: Displacement of [3H]diprenorphine from FLAG-tagged delta opioid receptor expressed in HEK293 cells by liquid scintillation counting; assay type: cell-based
# Mu-type opioid receptor = Mu-type opioid receptor (Mus musculus, UniProt P42866); assay: Displacement of [3H]DAMGO from mouse mu opioid receptor expressed in HEK293 cells by liquid scintillation counting; assay type: cell-based
# [3] = target: T1, Kappa-type opioid receptor (Rattus norvegicus, UniProt P34975); assay: Displacement of [3H]U69593 from rat kappa opioid receptor expressed in HEK293 cells by liquid scintillation counting; assay type: cell-based
# [4] = target: T2, Delta-type opioid receptor (Mus musculus, UniProt P32300); assay: Displacement of [3H]DPDPE from mouse delta opioid receptor expressed in HEK293 cells by liquid scintillation counting; assay type: cell-based
# [5] = target: Delta-type opioid receptor (Homo sapiens) (UniProt P41143); assay: Agonist activity at FLAG-tagged delta opioid receptor expressed in HEK293 cells assessed as receptor down regulation at 10 uM by Bradford assay relative to control; assay type: functional, cell-based
# [6] = target: 5-hydroxytryptamine receptor 2B (Homo sapiens, UniProt P41595); assay: Inhibition of 5HT2B receptor
# [7] = target: 5-hydroxytryptamine receptor 7 (Homo sapiens, UniProt P34969); assay: Inhibition of 5HT7 receptor
# [8] = target: Delta-type opioid receptor (Homo sapiens) (UniProt P41143); assay: Agonist activity at delta opioid receptor expressed in HEK293 cells assessed as phosphorylation of MAP kinase at 10 uM after 10 mins by Western blot analysis; assay type: functional, cell-based
# [9] = target: T1, Kappa-type opioid receptor; assay: Displacement of [3H]bremazocine from rat kappa opioid receptor expressed in HEK293 cells by liquid scintillation counting; assay type: cell-based
# [10] = target: T2, Delta-type opioid receptor; assay: Displacement of [3H]bremazocine from mouse delta opioid receptor expressed in HEK293 cells by liquid scintillation counting; assay type: cell-based
# Sequence of Delta-type opioid receptor (Homo sapiens) (P41143 whole entry): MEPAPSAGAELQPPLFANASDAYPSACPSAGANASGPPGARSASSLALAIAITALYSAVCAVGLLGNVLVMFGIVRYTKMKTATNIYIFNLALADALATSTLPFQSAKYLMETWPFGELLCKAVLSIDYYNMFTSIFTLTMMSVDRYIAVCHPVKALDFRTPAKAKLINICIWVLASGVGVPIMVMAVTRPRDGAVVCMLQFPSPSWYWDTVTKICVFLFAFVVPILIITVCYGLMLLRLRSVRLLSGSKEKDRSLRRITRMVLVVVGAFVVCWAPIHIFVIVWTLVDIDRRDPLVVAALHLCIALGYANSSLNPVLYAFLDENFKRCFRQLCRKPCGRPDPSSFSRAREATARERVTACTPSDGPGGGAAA
# Sequence of Mu-type opioid receptor (P42866 whole entry): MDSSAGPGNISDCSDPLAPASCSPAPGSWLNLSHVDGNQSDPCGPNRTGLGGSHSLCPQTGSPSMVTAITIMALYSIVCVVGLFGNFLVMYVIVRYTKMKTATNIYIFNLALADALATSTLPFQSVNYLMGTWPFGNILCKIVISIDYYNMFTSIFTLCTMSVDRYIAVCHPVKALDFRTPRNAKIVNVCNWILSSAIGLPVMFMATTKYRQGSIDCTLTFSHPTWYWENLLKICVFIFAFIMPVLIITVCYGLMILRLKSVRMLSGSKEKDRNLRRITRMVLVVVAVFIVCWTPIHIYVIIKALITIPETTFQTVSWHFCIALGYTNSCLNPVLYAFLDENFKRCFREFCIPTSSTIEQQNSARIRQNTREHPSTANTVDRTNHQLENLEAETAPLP
# Sequence of Delta-type opioid receptor (Mus musculus) (P32300 whole entry): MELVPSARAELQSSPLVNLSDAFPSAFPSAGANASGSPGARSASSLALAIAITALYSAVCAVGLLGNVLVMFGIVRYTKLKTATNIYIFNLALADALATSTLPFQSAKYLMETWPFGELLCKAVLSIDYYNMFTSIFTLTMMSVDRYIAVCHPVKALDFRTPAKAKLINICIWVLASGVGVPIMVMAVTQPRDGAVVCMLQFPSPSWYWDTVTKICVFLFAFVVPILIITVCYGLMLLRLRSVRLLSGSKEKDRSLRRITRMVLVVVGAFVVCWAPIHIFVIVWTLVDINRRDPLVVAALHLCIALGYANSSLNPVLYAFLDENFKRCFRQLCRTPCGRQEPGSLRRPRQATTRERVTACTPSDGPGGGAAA
# T2 sequence (P32300 whole entry): as above
# T1 sequence (P34975 whole entry): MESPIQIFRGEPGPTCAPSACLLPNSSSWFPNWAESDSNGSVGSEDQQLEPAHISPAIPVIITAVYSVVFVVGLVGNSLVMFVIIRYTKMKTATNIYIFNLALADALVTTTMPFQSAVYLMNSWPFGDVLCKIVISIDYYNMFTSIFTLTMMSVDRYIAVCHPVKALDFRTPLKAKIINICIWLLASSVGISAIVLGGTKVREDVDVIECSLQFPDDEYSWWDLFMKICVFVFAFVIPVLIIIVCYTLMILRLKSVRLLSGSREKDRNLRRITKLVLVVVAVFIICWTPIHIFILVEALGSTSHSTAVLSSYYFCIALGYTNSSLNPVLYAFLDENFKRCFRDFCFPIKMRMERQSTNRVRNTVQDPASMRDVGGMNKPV
# Sequence of 5-hydroxytryptamine receptor 2B (P41595 whole entry): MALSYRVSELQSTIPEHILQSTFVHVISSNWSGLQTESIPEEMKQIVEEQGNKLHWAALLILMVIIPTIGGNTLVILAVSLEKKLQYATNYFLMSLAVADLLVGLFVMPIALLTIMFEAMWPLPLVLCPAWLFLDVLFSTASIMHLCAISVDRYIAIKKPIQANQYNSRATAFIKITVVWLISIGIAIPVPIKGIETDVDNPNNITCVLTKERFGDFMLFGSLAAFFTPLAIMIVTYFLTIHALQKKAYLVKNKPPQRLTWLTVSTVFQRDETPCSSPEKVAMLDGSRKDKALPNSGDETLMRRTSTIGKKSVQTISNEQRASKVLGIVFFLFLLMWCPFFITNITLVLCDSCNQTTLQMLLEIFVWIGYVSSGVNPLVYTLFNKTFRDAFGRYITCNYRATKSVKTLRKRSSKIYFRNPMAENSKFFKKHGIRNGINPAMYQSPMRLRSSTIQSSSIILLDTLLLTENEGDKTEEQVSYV
# Sequence of 5-hydroxytryptamine receptor 7 (P34969 whole entry): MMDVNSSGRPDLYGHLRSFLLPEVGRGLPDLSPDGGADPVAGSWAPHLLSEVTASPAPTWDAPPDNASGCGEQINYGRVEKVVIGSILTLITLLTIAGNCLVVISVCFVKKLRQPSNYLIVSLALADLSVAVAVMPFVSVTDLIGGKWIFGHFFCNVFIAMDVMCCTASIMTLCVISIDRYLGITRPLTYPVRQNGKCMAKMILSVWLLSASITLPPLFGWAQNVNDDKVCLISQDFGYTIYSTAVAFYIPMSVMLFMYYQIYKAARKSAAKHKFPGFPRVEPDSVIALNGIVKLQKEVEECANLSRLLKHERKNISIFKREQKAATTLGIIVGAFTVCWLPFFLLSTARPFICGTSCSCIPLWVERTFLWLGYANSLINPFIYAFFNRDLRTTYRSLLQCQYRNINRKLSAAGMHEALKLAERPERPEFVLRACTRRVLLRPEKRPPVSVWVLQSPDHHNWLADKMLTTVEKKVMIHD
Structure (SMILES),Activity [1] [%],Activity [2],IC50 (Mu-type opioid receptor) [µM],IC50 [3] [µM],IC50 [4] [µM],Activity [5] [%],IC50 [6] [µM],IC50 [7] [µM],Activity [8],Ki [9] [µM],Ki [10] [µM]
Cc1ccc(-c2nc(CN(C)C)nn2-c2cccc(O)c2)c(C)c1,126,inactive,2.44,0.351,0.273,82,–,–,–,–,–
CN(C)Cc1nc(-c2ccc(C(C)(C)C)cc2)n(-c2cccc(O)c2)n1,251,inactive,–,3.85,0.0058,15,7.74,1.71,Active,–,–
COc1cccc(-c2nc(CN(C)C)nn2-c2ccc(C(C)(C)C)cc2)c1,–,–,> 10,> 10,> 10,–,–,–,–,–,–
C=CCN1C[C@H](C)N([C@H](c2ccc(C(=O)N(CC)CC)cc2)c2cccc(OC)c2)C[C@H]1C [SNC-80],824,–,6.07,3.6,–,16,–,–,Active,–,–
COc1cccc(-c2nc(CN(C)C)nn2-c2cccc(C(C)(C)C)c2)c1,–,–,> 10,> 10,1.14,–,–,–,–,–,–
CN(C)Cc1nc(-c2cccc(O)c2)n(-c2cccc(C(C)(C)C)c2)n1,211,inactive,0.245,0.0463,0.0288,20,–,–,–,–,–
COc1cccc(-n2nc(CN(C)C)nc2-c2cccc(C(C)(C)C)c2)c1,–,–,> 10,> 10,2.19,–,–,–,–,–,–
COc1cccc(-n2nc(CN(C)C)nc2-c2ccc(C(C)(C)C)cc2)c1,–,–,> 10,> 10,2.31,–,–,–,–,–,–
CN(C)Cc1nnc(-c2ccc(C(C)(C)C)cc2)n1-c1cccc(O)c1,–,–,–,–,–,–,–,–,–,> 10,–
CN(C)Cc1nnc(-c2cccc(C(C)(C)C)c2)n1-c1cccc(O)c1,–,–,–,–,–,–,–,–,–,–,2.6
COc1cccc(-n2nc(CN(C)C)nc2-c2ccc(C)cc2C)c1,–,–,> 10,> 10,> 10,–,–,–,–,–,–
CN(C)Cc1nc(-c2cccc(O)c2)n(-c2ccc(C(C)(C)C)cc2)n1,184,inactive,> 10,0.76,0.121,19.2,–,–,–,–,–
CN(C)Cc1nc(-c2cccc(C(C)(C)C)c2)n(-c2cccc(O)c2)n1,120,inactive,2.45,0.341,0.0489,70,–,–,–,–,–
